We go through four molecules from ChEMBL document CHEMBL1201862, “PubChem BioAssay data set” (2004).

Some test systems named below: Malme-3M; NCI-H460; 786-0; SW-620; IGROV-1; TK-10; M14; A498; NCI-H23; HOP-92; OVCAR-3; Hs-578T; HCT-15; COLO 205; SK-MEL-5; SK-OV-3; BT-549; NCI-H522; SNB-75.
Test in all cases: growth of human tumour cells (NCI), 48 h

Values joined by “and” are separate entries in the source; they are usually repeats but may differ in a detail not shown here. Equal values may be shown once.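 Exposure lasted 48 hours, with cells grown in 96-well plates and compounds tested at five concentrations. Here, GI50 denotes the concentration required for 50% inhibition of growth.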 Active and inactive are the calls of the source. Rule as the data show it: active = GI50 up to about 1.1 µM and inactive = higher.

As for `COC1=CC(=O)C2=C(C[C@@]3(C)C(=C2)C(CO)=CC[C@H]3O)C1=O`, the GI50 is 34.2 µM (inactive) in the assay with Malme-3M; 25.9 µM (inactive) in the assay on NCI-H460; 20.7 µM (inactive) with 786-0; 25.3 µM (inactive) in the assay on SW-620; 14.6 µM (inactive) in the assay on IGROV-1; 98.2 µM (inactive) in the assay on TK-10. Moreover, the GI50 with M14 is 21.8 µM (inactive); with A498 it was > 100 µM (inactive); in the assay with NCI-H23 it was 20.4 µM (inactive); in the assay with HOP-92, 11 µM (inactive); in the assay with OVCAR-3, 24.9 µM (inactive); with Hs-578T, 30.9 µM (inactive). In addition, the GI50 is 27.5 µM in the assay on HCT-15; 27.5 µM (inactive) with COLO 205; 17.4 µM (inactive) with SK-MEL-5; 88.5 µM (inactive) with SK-OV-3; 19.2 µM (inactive) in the assay with BT-549.
Regarding `O=C(CCc1ccc(O)c(O)c1)NCCc1cc(OCc2ccccc2)cc(OCc2ccccc2)c1`, the GI50 in the assay with NCI-H460 was 5.55 µM (inactive); with 786-0, 13.3 µM (inactive); with SW-620 it was 7.1 µM (inactive); with NCI-H522 it was 1.79 µM (inactive); in the assay with IGROV-1, 5.93 µM (inactive); with TK-10, 16.3 µM (inactive). The GI50 in the assay on M14 is 12.1 µM (inactive); in the assay with A498, 15.7 µM (inactive); in the assay with NCI-H23 it was 14.1 µM (inactive); with SNB-75 it was 4.98 µM (inactive); with HOP-92, 8.87 µM (inactive); in the assay with OVCAR-3, 5.92 µM (inactive). For the same molecule, the GI50 in the assay on Hs-578T was 9.29 µM (inactive); with HCT-15, 3.03 µM; in the assay with COLO 205, 2.81 µM (inactive); with SK-MEL-5, 12.2 µM (inactive); in the assay with SK-OV-3 it was 14 µM (inactive); in the assay on BT-549, 6.07 µM (inactive).
With `COc1ccc(NC=O)c(C(O)CCNC(C)=O)c1` (stereo unspecified), the GI50 in the assay with NCI-H460, with 786-0, in the assay with SW-620, with NCI-H522, in the assay on IGROV-1 and in the assay with TK-10 was > 100 µM (inactive) each time. In addition, the GI50 in the assay with M14, with A498, in the assay on NCI-H23, with SNB-75, with HOP-92 and in the assay on OVCAR-3 was > 100 µM (inactive) in each case. The GI50 in the assay on Hs-578T was > 100 µM (inactive); in the assay with HCT-15, greater than 100 µM; in the assay with COLO 205 it was > 100 µM (inactive); with SK-MEL-5 it was > 100 µM (inactive); with SK-OV-3, > 100 µM (inactive); in the assay with BT-549, > 100 µM (inactive).
With `O=C(/C=C/c1ccccc1)c1ccccn1`, the GI50 was 16.7 µM (inactive) and 21.3 µM (inactive) with NCI-H460; 12.3 µM (inactive) and 17.2 µM (inactive) in the assay with 786-0; 18.7 µM (inactive) and 29.8 µM (inactive) with SW-620; 17.8 µM (inactive) and 15.1 µM (inactive) in the assay on NCI-H522; 10.5 µM (inactive) and 17.4 µM (inactive) in the assay with IGROV-1; 19 µM (inactive) and 15.2 µM (inactive) in the assay with TK-10. For the same molecule, the GI50 in the assay with M14 was 14.5 µM (inactive); in the assay on A498, 13 µM (inactive) and 17.5 µM (inactive); in the assay on NCI-H23, 17.9 µM (inactive) and 17.5 µM (inactive); with SNB-75 it was 24.5 µM (inactive) and 16 µM (inactive); in the assay on HOP-92, 19.1 µM (inactive); in the assay on OVCAR-3 it was 12.7 µM (inactive) and 16.4 µM (inactive). For the same molecule, the GI50 in the assay on Hs-578T was 22.6 µM (inactive); in the assay with HCT-15 it was 11.8 µM and 18.5 µM; with COLO 205 it was 18.6 µM (inactive) and 22.2 µM (inactive); in the assay on SK-MEL-5 it was 14 µM (inactive) and 26.1 µM (inactive); in the assay on SK-OV-3, 27.4 µM (inactive) and 38.5 µM (inactive); in the assay with BT-549, 24 µM (inactive) and 18.8 µM (inactive).
